# Results published in patent US20070021485A1, “Aryl (or heteroaryl) azolylcarbinols” (priority 2005, published 2007).
# Where two headings read alike, the source gives them in different places.
# Assays:
# rat bladder contractions = assay: Isovolumetric rhythmic bladder contractions in the anesthetized rat: amplitude and rate of the contractions; format: in vivo; conditions: for amplitude of the bladder contractions / rate of the bladder contractions: anesthetized rat, iv, 6.83, 13.7 and 27.3 mg/kg given as citrate, FIG. 2
# Protocol: (1) Isovolumetric Rhythmic Bladder Contractions in the Anesthetized Rat
# (a) Amplitude and Rate of the Contractions
# Rat urinary bladder catheterized:
# A pressure transducer is used to measure intravesical pressure (recording rate and amplitude of bladder contractions).
# An infusion pump is used to fill bladder by 0.1 ml increments of saline until rhythmic contractions. After 15 minutes of constant interval bladder contractions, (R)-(+)-2-((1-methyl-1H-pyrazol-5-yl)(phenyl)methoxy-N-methylethanamine citrate in 6.83, 13.7, and 27.3 mg/kg dosages; (S)-(−)-2-((1-methyl-1H-pyrazol-5-yl)(phenyl)methoxy-N-methylethanamine citrate in 6.83, 13.7 and 27.3 mg/kg dosages; and oxybutinyn in a 1 mg/kg dose were administered by iv. Measurements were made before and then during 15 minute intervals after each administration.
# Aditionally the compound 1, accoridng example 1, and its enantiomers were active in rat urinary incontinence test. They inhibited the amplitude of the rat bladder contractions. The compounds were evaluated in a model of cystometry in the anesthesized rat, looking for the effects on isovolumetric rhythmic bladder contractions. The method, which evaluatesthe effects of the test substances on lower urinary tract function, followed that described by Y. Kimura et al. ( Int. J. Urol. 1996, 3: 218-227).
# rat urinary bladder = assay: Urodynamic parameters (cystometry) in the anesthetized rat; format: in vivo; conditions: for mean volume of micturition / number of micturitions / volume for the first micturition: anesthetized rat, iv, duloxetine 1 mg/kg, cizolirtine 10 mg/kg, N-desmethyl metabolite 10 mg/kg, vs control vehicle, FIG. 3
# Protocol: Rat urinary bladder was catheterized. A pressure transducer was used to measure intavesical pressure in anesthetized rats treated with 1 mg/kg duloxetine, 10 mg/kg cizolirtine, 10 mg/kg N-desmethyl metabolite or a control vehicle. Recordings were made of the infusion volume, pressure needed for micturition, number of micturitions during the infusion.
# An infusion pump was used to fill bladder with saline until micturition. After stabilization, treatment compounds or control vehicle were administered by iv. Fifteen minutes after administration, saline infusion was started and urodynamic parameters were again analyzed. The number of micturitions, volume for first micturition, mean volume for micturition, and AUC of intravesical pressure were measured for each of the treatment groups and compared to the control.
# (§1) This is performed on Sprague-Dawley male and female anaesthetized rats. Left carotid artery is inserted with a catheter for the continuous measure of systemic arterial pressure and cardiac frequency. After an incision to the abdomen, a catheter is inserted on the bladder and connected to a pressure transducer and to an infusion pump. The urethra is ligated and the bladder is voided. After stabilization period, saline solution is infused (0.9 % NaC1solution at 5 ml/h rate) and the basal parameters of intravesical pressure are measured for 20 min. Cystometry parameters are the infusion volume and pressure needed to activate the micturition reflex, and the micturition frequency. After stabilization period, the compounds are administered i.v. and, 15 min. later, saline is infused and urodynamic parameters are measured again to compare with basal.
# [1] = test system: acetic acid-induced bladder hyperactivity; assay: Protection against acetic acid-induced bladder hyperactivity in the anesthetized rat; format: in vivo; conditions: for protection of the rat bladder against the acetic acid-induced hyperactivity: cizolirtine 5, 10 mg/kg i.v.; for protection of the rat bladder against the acetic acid-induced hyperactivity / number of micturitions / volume for the first micturition: duloxetine 1 mg/kg; for number of micturitions / volume for the first micturition: cizolirtine 5 and 10 mg/kg, vs control, FIG. 4
# Protocol: (a) Protection Against Acetic Acid-induced Hyperactivity: Urodynamic Parameters
# Anesthetized rat bladders were treated with […], […] and 1 mg/kg duloxetine, […] and 5 mg/kg cizolirtine, […] and 10 mg/kg cizolirtine, or […] and 10 mg/kg N-desmethyl metabolite. The number of micturitions, the volume for first micturition, micturition volume, intravesical pressure increase, and AUC of intravesical pressure were measured for each of the treatment groups and the control.
# as §1
# Further the effect on acetic acid-induced bladder hiperactivity is tested.
# reserpine-induced ptosis = assay: Inhibition of reserpine-induced ptosis in mice; format: in vivo; conditions: for ED50: Mus musculus, read-out: Inhibition test Reserpin ptosis In mice ED50
# Protocol: It has been used the test described by S.Garattini et al. (Med.Exp. 1960, 3: 315-320). The antidepressant drugs inhibit the parpebral ptosis induced by reserpine ([…], i.p.) in mice.
# [2] = test system: aversive situation-induced immobility; assay: Inhibition of immobility induced by an aversive situation (tail suspension) in mice; format: in vivo; conditions: Mus musculus, ip, read-out: Immobility test Tail hanging In mice ED50
# Protocol: The test was described by R. D. Porsolt et al. (Arch.int.Pharmacodyn. 1987, 288: 11-30). Following suchg method, the compound to be studied was administered by ip route, and 30 minutes later mice were submitted to an aversive situation: they were tail suspended in the […] for 6 minutes. Mobility time and movements power were authomatically measured and registered in the above mentioned device. The potential antidepressant reduce the mice immobility time.
# [3] = test system: immobility in forced swimming; assay: Water despair test (forced swimming) in rats; format: in vivo; conditions: for Swimming Test Forced swimming In rats, activity at single dose: 40 mg/Kg; for ED50: read-out: Swimming Test Forced swimming In rats ED50
# Protocol: The test was described by R. D. Porsolt et al. (Europ.J.Pharmacol. 1978, 47:379-391). […] The following day, 24 hours later, were let to swim in the water, but only for 5 minutes, and it was […] immobility time. The compounds to be studied were administered by ip route, 60 minutes before the test. The antidepressants reduce the immobility time. […] (Tablel).
# [4] = test system: urinary incontinence secondary to overactive bladder or idiopathic urge incontinence; assay: Clinical Study A, placebo controlled, 50 mg twice a day; format: in vivo, human; conditions: patients
# Protocol: In a placebo controlled clinical trial 79 patients are randomized. Patients are from both genders with ages between 18 and 80 years (inclusive). They have urinary incontinence secondary to overactive bladder (detrusor hyperreflexia or instability) or idiopathic urge incontinence confirmed by the medical history and urodynamic study.
# One group of patients is treated with 2-((1-methyl-1H-pyrazol-5-yl)(phenyl)methoxy-N-methylethanamine, 50 mg, twice a day, formulated as a tablet for oral administration. Another group is treated with placebo in matching tablets, twice a day, with administration by oral route. The patients are treated for 84 days.
# Efficacy is measured by the difference from baseline in the mean number of leakages, micturitions, urgencies and voidings/24 hours as provided by a 7-day frequency-volume chart in the end of the study visit.
# (§2) The primary efficacy analysis is based on the PP population. The treatment groups are compared with respect to the treatment effect, defined as the difference between treatment groups for changes from baseline in the number of voidings per 24 hours.
# Additionally, the percentage of responders is compared based on an analysis of the number of patients having <8 voidings/day or experiencing complete dryness or both, and statistical significance determined.
# [5] = test system: urinary incontinence secondary to overactive bladder or idiopathic urge incontinence; assay: Clinical Study B, placebo controlled, 100 mg twice daily; format: in vivo, human; conditions: patients, 100 mg by oral route twice daily, 84 days
# Protocol: In a placebo controlled clinical trial 135 patients are randomized. Patients are from both genders with ages between 18 and 80 years (inclusive). They have urinary incontinence secondary to overactive bladder (detrusor hyperreflexia or instability) or idiopathic urge incontinence confirmed by the medical history and urodynamic study.
# One group of patients is treated with 2-((1-methyl-1H-pyrazol-5-yl)(phenyl)methoxy-N-methylethanamine 100 mg formulated as an oral administration (twice daily). Another group is treated with placebo matching capsules, […], with administration by oral route. The patients are treated for 84 days.
# Efficacy is measured by the difference from baseline in the mean number of voidings/24 hours as provided by a 7-day frequency-volume chart in the end of study visit.
# as §2
# Additionally, the percentage of responders is compared based on analysis of the number of patients having <8 voidings per day or experienced complete dryness or both., and statistical significance determined.
# serotonin transporter = biological target: T1, serotonin transporter (Rattus norvegicus, UniProt P31652); assay: Serotonin transporter affinity, (3H)paroxetine binding in rat brain cortex; conditions: (3H)paroxetine radioligand, serotonin 100 μM non specific
# T1 construct: from tissue; host or cells: rat brain cortex
# Protocol: This affinity was studied in rat brain cortex, using (3H)paroxetine ([…]) as radioligand and 5-Hydroxytriptamine (serotonin)(100 μM) as non specific ligand.
# [6] = anaesthetized Sprague-Dawley rats, 10 mg/kg i.v., vs basal
# [7] = N-desmethyl metabolite 10 mg/kg
# [8] = acetic acid 0.3% v/v infusion, 10 mg/kg i.v.
# [9] = acetic acid 0.3% v/v infusion, 10 mg/kg i.v. acute
# [10] = acetic acid-treated rat bladder, N-desmethyl metabolite 10 mg/kg
# [11] = mice, i.p., 30 minutes before tail suspension for 6 minutes
# [12] = 50 mg twice a day oral, 84 days, compared with placebo
# T1 sequence (P31652 whole entry): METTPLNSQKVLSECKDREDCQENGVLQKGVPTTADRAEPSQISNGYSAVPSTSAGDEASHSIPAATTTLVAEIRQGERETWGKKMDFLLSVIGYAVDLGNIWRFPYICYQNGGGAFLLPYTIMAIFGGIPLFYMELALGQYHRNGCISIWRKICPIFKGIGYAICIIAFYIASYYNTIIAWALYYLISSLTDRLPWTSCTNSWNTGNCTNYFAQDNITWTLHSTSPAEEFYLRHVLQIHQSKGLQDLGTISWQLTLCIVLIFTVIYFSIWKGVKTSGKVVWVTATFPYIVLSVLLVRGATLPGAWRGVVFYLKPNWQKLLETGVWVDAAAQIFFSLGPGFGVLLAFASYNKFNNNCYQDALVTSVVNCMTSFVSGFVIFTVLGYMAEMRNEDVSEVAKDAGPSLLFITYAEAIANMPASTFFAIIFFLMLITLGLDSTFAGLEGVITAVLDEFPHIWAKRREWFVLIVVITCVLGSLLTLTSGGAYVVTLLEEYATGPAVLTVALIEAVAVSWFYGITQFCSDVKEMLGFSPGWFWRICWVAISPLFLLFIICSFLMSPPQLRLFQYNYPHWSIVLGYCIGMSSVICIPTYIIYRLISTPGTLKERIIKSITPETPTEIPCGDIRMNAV
smiles,measurement,setting,value
CNCCO[C@@H](c1ccccc1)c1ccnn1C [2-((S)-(1-methyl-1H-pyrazol-5-yl)(phenyl)methoxy)-N-methylethanamine],amplitude of the bladder contractions,rat bladder contractions,inhibited
same,rate of the bladder contractions,rat bladder contractions,without modifying the rate
CNCCO[C@H](c1ccccc1)c1ccnn1C [(R)-2-((1-methyl-1H-pyrazol-5-yl)(phenyl)methoxy)-N-methylethanamine],amplitude of the bladder contractions,rat bladder contractions,inhibited
same,rate of the bladder contractions,rat bladder contractions,without modifying the rate
CN(C)CCOC(c1ccccc1)c1ccnn1C (centres unmarked) [Cizolirtine],bladder contractility,rat urinary bladder; [6],no alteration
same,bladder pressure,rat urinary bladder; [6],significantly reduced
same,mean micturition volume,rat urinary bladder; [6],significantly increased
same,micturition frequency,rat urinary bladder; [6],trends to decrease
same,volume required for first micturition,rat urinary bladder; [6],augment
same,mean volume of micturition,rat urinary bladder,increased
same,number of micturitions,rat urinary bladder,decreased
same,volume for the first micturition,rat urinary bladder,increased
same,protection of the rat bladder against the acetic acid-induced hyperactivity,[1]; [7],protected
same,acetic acid-caused increase of bladder pressure,[1]; [8],reversed
same,contractile capacity of the bladder,[1]; [8],Neither acetic acid nor cizolirtine significantly affected
same,acetic acid-caused increase of micturition frequency,[1]; [9],significantly reduced
same,acetic acid-caused reduction of micturition volume,[1]; [9],significantly reduced
same,number of micturitions,[1]; [10],reduced
same,volume for the first micturition,[1]; [10],increased
same,ED50,"reserpine-induced ptosis; mice, p.o., reserpine i.p.",26 mg/kg
same,ED50,[2]; [11],17 mg/kg
same,"Swimming Test Forced swimming In rats, activity at single dose","[3]; rats, i.p.",inactive
"CNCCOC(c1ccccc1)c1ccnn1C (centres unmarked) [Compound 1, 2-((1-methyl-1H-pyrazol-5-yl)(phenyl)methoxy)-N-methylethanamine]","amplitude of the rat bladder contractions, rat urinary incontinence test","rat bladder contractions; cystometry in the anesthesized rat, method of Kimura et al.",inhibited
same,mean volume of micturition,rat urinary bladder,increased
same,number of micturitions,rat urinary bladder,decreased
same,volume for the first micturition,rat urinary bladder,increased
same,protection of the rat bladder against the acetic acid-induced hyperactivity,[1]; [7],protected
same,number of micturitions (sentence on FIG. 5),"[1]; acetic acid-treated rat bladder, N-desmethyl metabolite 10 mg/kg, FIG. 5",increased
same,number of micturitions,[1]; [10],reduced
same,volume for the first micturition,[1]; [10],increased
same,"urge incontinence caused by overactive bladder, majority of efficacy variables","[4]; 50 mg twice a day by oral route, compared to placebo",clinically significant improvements
same,mean number of daily leakages,[4]; [12],significant reduction
same,mean number of daily micturitions,[4]; [12],significant reduction
same,mean number of daily urgencies,[4]; [12],significant reduction
same,mean number of daily voidings,[4]; [12],significant reduction
same,bladder overactivity,[5],improve bladder overactivity
same,Ki,serotonin transporter,0.116 µM
same,ED50,reserpine-induced ptosis,14 mg/kg
same,ED50,[2],17 mg/kg
same,ED50,"[3]; Rattus norvegicus, ip",33 mg/kg
"CNCCOC(c1cccs1)c1ccnn1C.O=C(O)C(=O)O (centres unmarked) [Compound 2, 2-((1-methyl-1H-pyrazol-5-yl)(thiophen-2-yl)methoxy)-N-methylethanamine; oxalate]","Inhibition test Reserpin ptosis In mice, activity at single dose","reserpine-induced ptosis; mice, p.o., 40 mg/Kg",inactive
same,ED50,[2]; [11],33 mg/kg
same,"Swimming Test Forced swimming In rats, activity at single dose","[3]; rats, i.p.",inactive
CNCCCN1c2ccccc2CCc2ccccc21 [Desipramine],inhibition at 30 mg/kg,"[3]; Rattus norvegicus, ip, rats, i.p., 30 mg/Kg, read-out: Swimming Test Forced swimming In rats, I (inhibition) at single dose",32%
CN[C@H]1CC[C@@H](c2ccc(Cl)c(Cl)c2)c2ccccc21 [Sertraline],ED50,"reserpine-induced ptosis; mice, p.o., reserpine i.p.",17 mg/kg
same,ED50,[2]; [11],8 mg/kg
same,ED50,"[3]; Rattus norvegicus, ip, rats, i.p., 60 minutes before the test",28 mg/kg
CNCC[C@H](Oc1cccc2ccccc12)c1cccs1 [duloxetine],mean volume of micturition,rat urinary bladder,increased
same,number of micturitions,rat urinary bladder,decreased
same,volume for the first micturition,rat urinary bladder,increased
same,protection of the rat bladder against the acetic acid-induced hyperactivity,[1]; [7],protected
same,number of micturitions,[1]; [10],reduced
same,volume for the first micturition,[1]; [10],increased
